This is an account of results in patent publication EP2217930B1, “MALDI MS-BASED HIGH-THROUGHPUT SCREENING METHOD FOR SUBSTANCES INHIBITING AGGREGATION OF ALZHEIMER'S AMYLOID BETA PEPTIDES” (Tallinn University of Technology, priority 2007, dated 2009).

The target of the experiment is T1, Aβ42 (Homo sapiens, UniProt P05067).
T1 construct: Both 40 and 42 amino acid amyloid beta peptides were purchased from rPeptide; purchased rPeptide (Bogart, USA)
T1 sequence (P05067 672-713 limits assumed): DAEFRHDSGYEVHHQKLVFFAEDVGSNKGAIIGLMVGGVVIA
Briefly: automatic MALDI-TOF MS high-throughput screening assay for inhibitors of Aβ42 aggregation (detection of monomeric Aβ42, insulin B chain as internal standard). Type of experiment: biochemical. As to conditions: 35 selected substances tested; 5 µM Aβ42 in 20mM HEPES 0.1 M NaCl pH 7.5; monomeric Aβ42 detected by MALDI-TOF MS.
Experimental: For every aggregation experiment Aβ42 solutions were prepared following the same procedure. The lyophilized peptide was taken out from the -80°C fridge, and incubated at room temperature until thawing. Cold 0.02% ammonium hydroxide was added to the peptide to get a final concentration of 10 µM. The solution was mixed on the vortex for a minute and put on ice. Before the beginning of the experiment the solution was mixed again for a shorter time. To start the experiment, the peptide stock solution was diluted in a ratio of 1:1 into the buffer, which contained various concentrations of a tested compound. All probes contained 5 µM Aβ42 in 20mM HEPES 0.1 M NaCl pH 7.5. Aβ42 solutions were always prepared shortly before the beginning of experiment.
First, 5 µM B chain solution in 60% AcN 0.3% TFA was prepared and added to the α-cyano matrix solution to generate a 10 mg/ml α-cyano, 0.25 µM B chain solution in 60% AcN 0.3% TFA. The solution was mixed on a vortex for a minute and then incubated at room temperature for 10 minutes. Solution was mixed again, centrifuged for 3 min at 6000 rpm and the supernatant was transferred into a clean vial. Shortly before the beginning of aggregation experiments, Aβ42 solutions were prepared and transferred to sequential wells of a 96-well plate.
Spots on MALDI plates were generated automatically by an Ettan Spotter (Amersham Biosciences, Sweden). Different spotting procedures were tested and best results were obtained using the following method: 0.5 µl sample + 1.5 µl matrix containing the internal calibrant - mixing 3 times with a volume of 1 µl.
The spots were air-dried and spectra were collected automatically with Voyager DE™ STR BioSpectrometry™Workstation (Applied Biosystems, USA) mass spectrometer. […] The spectra were processed with Data Explorer™ Software (Version 4; Applied Biosystems, USA).
As to Zn(CH3COO)2 [zinc], the “inhibition of aggregation of Aβ42” value is “inhibited aggregation of Aβ42”.
The result for copper reads “inhibited aggregation of Aβ42”; that for hemin, “inhibits aggregation of Aβ42”.
